Where two headings read alike, the source gives them in different places. No end group written: not given here.
Molecular target: HLA-Cw*0102 (Homo sapiens, UniProt P10321, A176E/A330V/A35S/A97T/C350S/D114A/D33F/L171W/L180R/L218V/M285V/M309V/M331V/P208H/Q277E/Q291P/R121W/R243W/R30K/S123C/S140Y/S297R/T329A/T363A/V272M/V319A)
Test: FACS-based MHC stabilisation assay (peptide binding, T2 cells)
[1] = Table 4 HIV-1 peptides, T2 cells, peptide 200-0.04 µM, 16 h 37°C, mAb VP6G3, flow cytometry, read-out: pBL50 (exp) (converted)
[2] = Table 3 newly-designed peptides, T2 cells, peptide 200-0.04 µM, 16 h 37°C, mAb VP6G3, flow cytometry, read-out: pBL50 (exp) (converted)

`CC(C)[C@H](NC(=O)[C@H](C)N)C(=O)N[C@@H](CC(=O)O)C(=O)N[C@@H](C)C(=O)N[C@@H](CC(=O)O)C(=O)N[C@@H](CC(=O)O)C(=O)N[C@@H](CO)C(=O)N[C@@H](Cc1c[nH]cn1)C(=O)N[C@@H](Cc1ccccc1)C(=O)O` [A V D A D D S H F] was tested, and the EC50 was > 1000 µM.
In the case of YMTPSSRPL [Y M T P S S R P L], the EC50 (pBL50(exp)) is reported as > 1000 µM.
With VDADDSHFV [V D A D D S H F V] the EC50 was > 1000 µM.
For ECPQGITPV, the EC50 (pBL50(exp)) was 0.109 µM.
IVIWGKTPK was tested, and the EC50 was > 1000 µM.
Compound FQSSMTKIL has an EC50 [1] of 0.701 µM.
For DADDSHFVS [D A D D S H F V S], the EC50 was > 1000 µM.
With NCPERIATL the EC50 was 0.201 µM.
For `CC[C@H](C)[C@H](N)C(=O)N[C@@H](CC(C)C)C(=O)N[C@@H](CCCCN)C(=O)N[C@@H](CCC(=O)O)C(=O)N1CCC[C@H]1C(=O)N[C@H](C(=O)N[C@@H](Cc1cnc[nH]1)C(=O)NCC(=O)N[C@H](C(=O)O)C(C)C)C(C)C` [I L K E P V H G V], the EC50 (pBL50(exp)) was > 1000 µM.
For FPISPIETV, the EC50 was > 1000 µM.
With PQSQGVVES the EC50 was > 1000 µM.
For EFPWVFIEL, the EC50 (pBL50(exp)) was 0.355 µM.
For HLPETKFSE [H L P E T K F S E], the EC50 (pBL50(exp)) was > 1000 µM.
For IVRMYSPTS, the EC50 was > 1000 µM.
For ITPTGTHPL [I T P T G T H P L], the EC50 (pBL50(exp)) was 0.283 µM.
For ADAEKPFYV [A D A E K P F Y V], the EC50 (pBL50(exp)) was > 1000 µM.
With LITPKKIKP the EC50 was > 1000 µM.
LSPRSKESV [L S P R S K E S V] was tested, and the EC50 (pBL50(exp)) was 0.91 µM.
Compound NCPEGYTSL has an EC50 (pBL50(exp)) of 0.0724 µM.
With LSPPKKKDL [L S P P K K K D L] the EC50 (pBL50(exp)) was > 1000 µM.
Compound ILSPRSESV [I L S P R S E S V] has an EC50 (pBL50(exp)) of 2.62 µM.
In the case of LTSPDVGLL [L T S P D V G L L], the EC50 (pBL50(exp)) is reported as 27.4 µM.
In the case of QYPKGDAWV, the EC50 (pBL50(exp)) is reported as > 1000 µM.
NCPEAIITL showed an EC50 (pBL50(exp)) of 0.193 µM.
With IPEPAHAYA [I P E P A H A Y A] the EC50 (pBL50(exp)) was > 1000 µM.
GADAEKPFY [G A D A E K P F Y] was tested, and the EC50 (pBL50(exp)) was > 1000 µM.
LPETKFSEL [L P E T K F S E L] gave an EC50 (pBL50(exp)) of 6.37 µM.
AAPAYSRAL [A A P A Y S R A L] was tested, and the EC50 (pBL50(exp)) was 1.77 µM.
Work on IVTRIVELL yielded an EC50 [1] of 1.12 µM.
LGPEKLQYL gave an EC50 (pBL50(exp)) of 0.151 µM.
In the case of EQFGNKTIV, the EC50 is reported as > 1000 µM.
With PLSPPKKKD [P L S P P K K K D] the EC50 (pBL50(exp)) was 10.1 µM.
MQPSRGKTL showed an EC50 (pBL50(exp)) of 0.17 µM.
With HNPGIATPV the EC50 (pBL50(exp)) was 0.661 µM.
NAPERIITL showed an EC50 (pBL50(exp)) of 0.00314 µM.
Work on ILSPSKESV [I L S P S K E S V] yielded an EC50 (pBL50(exp)) of 11.4 µM.
With NEPQRIEPL the EC50 (pBL50(exp)) was 0.0962 µM.
Work on KSPLDIVNL yielded an EC50 (pBL50(exp)) of 1.91 µM.
YMPTASCDL was tested, and the EC50 (pBL50(exp)) was 0.0129 µM.
NCPERIITA was tested, and the EC50 [2] was 0.257 µM.
With VAPWNSLSL [V A P W N S L S L] the EC50 (pBL50(exp)) was 0.703 µM.
NCPERAITL was tested, and the EC50 (pBL50(exp)) was 0.244 µM.
Work on FAPYNKPSL [F A P Y N K P S L] yielded an EC50 (pBL50(exp)) of 0.611 µM.
For NYTSLIHSL, the EC50 was > 1000 µM.
With NSTWSTEGS the EC50 was > 1000 µM.
ILSPSKESV [peptide 17] was tested, and the EC50 (pBL50 / binder class as quoted in text) was 1 to 31.6 µM.
For SWPMQFDAL [SWPMQFDAL], the EC50 (pBL50(exp)) was 0.269 µM.
Work on WGPGIIWAL [WGPGIIWAL] yielded an EC50 (pBL50(exp)) of 3.63 µM.
ACPERIITL was tested, and the EC50 [2] was 0.185 µM.
ILSPRKESV [I L S P R K E S V] showed an EC50 (pBL50(exp)) of 17.2 µM.
With YAQPQTTTP [Y A Q P Q T T T P] the EC50 (pBL50(exp)) was 5.96 µM.
For PLPSQAMDD [P L P S Q A M D D], the EC50 (pBL50(exp)) was > 1000 µM.
With VAPQLTFGL the EC50 (pBL50(exp)) was 0.0162 µM.
With ILSRSKESV [I L S R S K E S V] the “pBL50 / binder class as quoted in text” value was “non-binder” and the EC50 (pBL50(exp)) was > 1000 µM.
EAPMWDHWL gave an EC50 (pBL50(exp)) of 0.49 µM.
NAPWAVTSL [N A P W A V T S L] showed an EC50 (pBL50(exp)) of 0.142 µM.
For ADDSHFVSI [A D D S H F V S I], the EC50 was > 1000 µM.
AQPQTTTPL [A Q P Q T T T P L] gave an EC50 (pBL50(exp)) of 0.122 µM.
RVRQGYSPL was tested, and the EC50 [1] was 0.0866 µM.
Work on ILSPRSKES [I L S P R S K E S] yielded an EC50 (pBL50(exp)) of 292 µM.
In the case of EQPERYESV, the EC50 (pBL50(exp)) is reported as 0.132 µM.
For CAPREPHVV, the EC50 (pBL50(exp)) was 0.38 µM.
ILRRPTSPV [I L R R P T S P V] gave an EC50 of 7.96 µM.
For `CSCC[C@H](NC(=O)[C@H](C)NC(=O)[C@H](CCC(N)=O)NC(=O)[C@H](CO)NC(=O)[C@@H]1CCCN1C(=O)[C@@H](N)CC(C)C)C(=O)N[C@@H](CC(=O)O)C(=O)N[C@@H](CC(=O)O)C(=O)N[C@@H](CC(C)C)C(=O)O` [L P S Q A M D D L], the EC50 (pBL50(exp)) was > 1000 µM.
In the case of LLRWGFTTP, the EC50 [1] is reported as 2.05 µM.
For NCAERIITL, the EC50 (pBL50(exp)) was 0.434 µM.
HMPDVGCIL was tested, and the EC50 (pBL50(exp)) was 0.178 µM.
In the case of LLKLASPEL [L L K L A S P E L], the EC50 (pBL50(exp)) is reported as > 1000 µM.
WAPHTDTSL gave an EC50 (pBL50(exp)) of 0.0126 µM.
NCPERIIAL [NCPERIIAL] showed an EC50 (pBL50(exp)) of 0.141 µM.
ATSPIVPSL [A T S P I V P S L] gave an EC50 of 4.15 µM.
With ELIRTVRLI the EC50 was > 1000 µM.
In the case of “I L S P L T K G I: initial-set nonamer, Table 1 No. 13”, the “pBL50(exp)” value is reported as 3.061.
SLEECDSEL [S L E E C D S E L] showed an EC50 of 375 µM.
With DLLTSPDVG [D L L T S P D V G] the EC50 (pBL50(exp)) was > 1000 µM.
In the case of VRPMRQWPL, the EC50 (pBL50(exp)) is reported as 3.8 µM.
In the case of GIPEPAHAY [G I P E P A H A Y], the EC50 (pBL50(exp)) is reported as > 1000 µM.
Compound VIPMFSALS [VIPMFSALS] has an EC50 of 2.45 µM.
Compound LTEEKIKAL [LTEEKIKAL] has an EC50 [1] of 5.19 µM.
In the case of NCPARIITL, the EC50 (pBL50(exp)) is reported as 0.114 µM.
PVPLQLPPL showed an EC50 of 3.16 µM.
With ELQAIYLAL [ELQAIYLAL] the EC50 [1] was 1.25 µM.
With TDPWFHRSL the EC50 (pBL50(exp)) was 0.339 µM.
Compound CMPDWLDRL has an EC50 (pBL50(exp)) of 0.331 µM.
In the case of WRPDVNMQL, the EC50 (pBL50(exp)) is reported as 2.88 µM.
Work on LLTSPDVGL [L L T S P D V G L] yielded an EC50 (pBL50(exp)) of 11.7 µM.
With LSPLTKGIL [L S P L T K G I L] the EC50 was 3.79 µM.
`CC(C)C[C@H](NC(=O)[C@H](C)NC(=O)[C@@H]1CCCN1C(=O)[C@H](Cc1ccc(O)cc1)NC(=O)[C@H](CC(N)=O)NC(=O)CNC(=O)[C@@H]1CCCN1C(=O)[C@H](C)NC(=O)[C@@H](N)Cc1ccccc1)C(=O)O` [F A P G N Y P A L] showed an EC50 (pBL50(exp)) of 0.189 µM.
CAPAGFAIL showed an EC50 [1] of 0.00987 µM.
FMPIMKNEV showed an EC50 (pBL50(exp)) of 0.676 µM.
In the case of LVSAGIRKV, the EC50 is reported as > 1000 µM.
With KATSPIVPS [K A T S P I V P S] the EC50 was > 1000 µM.
VVPRRKAKI was tested, and the EC50 was > 1000 µM.
LQILAIVAL [LQILAIVAL] gave an EC50 [1] of 0.766 µM.
In the case of NCPERIITL, the EC50 (pBL50(exp)) is reported as 0.0634 µM.
